These results are taken from PubChem BioAssay (NCI).

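1) Cells in 96-well plates. 2) Compound, 48 h, 5 concentrations. 3) Linear interpolation between surrounding doses. 4) Unreached endpoint = highest concentration. TGI: total growth inhibition.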

Assay in all cases: inhibition of tumour cell growth, NCI panel, 48 h
For test [1], the system named is MDA-N.
The test system of test [2] is T-47D breast.
For test [3], the system named is NCI-H460 lung.
Test [4] concerns OVCAR-3 ovarian.
For test [5], the system named is TK-10 renal.
For test [6], the system named is RPMI-8226 leukemia.
Test [7] concerns NCI-H226 lung.
Test [8] deals with PC-3 prostate.
Test [9] concerns HCT-116 colon.
In test [10] the test system is A498 renal.
Test [11] has as its system MDA-MB-231 breast.
Test [12] has as its system HOP-62 NSCLC.
Test [13] deals with OVCAR-8 ovarian.
For test [14], the system named is KM12 colon.
In test [15] the test system is SK-MEL-2 melanoma.

For the molecule `C=C1C2C[C@@H]3O[C@H]4C[C@H]5O[C@@]6(C[C@@H]7O[C@]8(C[C@H](C)[C@@H]9O[C@@H]%10CC(C=O)O[C@@H]%10C[C@@H]9O8)C[C@H](C)[C@@H]7O6)C[C@H]5O[C@H]4[C@H](C)[C@H]3OC(=O)C[C@H]3CC[C@@H]4OC5[C@H]6O[C@]7(CC[C@H]8CC(=C)[C@H](CC[C@@H](C[C@H]1C)O2)O8)CC6O[C@@H]5[C@@H](O7)[C@H]4O3` (some centres not stated), the TGI in [1] is less than 0.0001 µM; in test [2], greater than 1 µM; in test [3] it was greater than 1 µM; in [4], greater than 1 µM; in [5] it was greater than 1 µM; in [6], 0.000326 µM. Besides, the TGI is 0.0119 µM in [7]; greater than 1 µM in [8]; greater than 1 µM in [9]; greater than 1 µM in test [10]; greater than 0.218 µM in [11]; greater than 1 µM in test [12].

With `O=C1C=CC(=O)c2c(O)c(NCCO)c(Cl)c(O)c21`, the TGI in [1] was 3.42 µM; in test [2] it was greater than 7.77 µM; in test [3] it was 8.68 µM; in test [4], 7.41 µM; in test [5], greater than 10 µM; in [6] it was greater than 10 µM. The TGI in test [13] is greater than 10 µM; in test [14], greater than 10 µM; in test [7] it was greater than 10 µM; in test [8], greater than 10 µM; in test [9], 3.55 µM; in [10], greater than 10 µM. Further, the results for the TGI in test [15], in test [11] and in test [12] were greater than 6.68 µM, 6.37 µM and greater than 8.35 µM, respectively.

As for `O=C(CCc1ccc(O)c(O)c1)NCCc1ccccc1`, the TGI in [1] is 43.3 µM; in [2], greater than 100 µM; in [3], greater than 100 µM; in test [4], greater than 100 µM; in [5], greater than 100 µM; in test [6], greater than 76.1 µM. For the same molecule, the TGI was greater than 100 µM in [13]; greater than 100 µM in test [14]; greater than 100 µM in [7]; greater than 51.9 µM in [8]; greater than 31.6 µM in [9]; greater than 100 µM in [10]. The TGI in test [15] was greater than 93.7 µM; in test [11] it was greater than 63.8 µM; in test [12] it was greater than 100 µM.

On to `CCOc1cc(/C=N/c2nc3cc4sc(/N=C/c5ccc(O)c(OCC)c5)nc4cc3s2)ccc1O`, for which the TGI in [1], in [2], in test [3], in test [4], in [5] and in [6] was greater than 100 µM in each case. The TGI in test [13], in test [14], in test [7], in [8], in [9] and in test [10] was greater than 100 µM each time. In addition, the TGI in test [15], in [11] and in test [12] was greater than 100 µM each time.

Take `COc1ccc2nc3cc([N+](=O)[O-])ccc3c(NNc3ccc([N+](=O)[O-])cc3)c2c1`: the TGI in test [1] was greater than 100 µM; in test [2], greater than 100 µM; in test [3], greater than 59.7 µM; in test [4], greater than 100 µM; in [5], greater than 24.2 µM; in test [6], greater than 71.5 µM. Further, the TGI was greater than 100 µM in test [13]; greater than 100 µM in test [14]; greater than 56.4 µM in test [7]; greater than 100 µM in test [8]; greater than 100 µM in [9]; 0.382 µM in [10]. In addition, the results for the TGI in test [15], in test [11] and in test [12] were greater than 96.2 µM, greater than 91.6 µM and greater than 100 µM, respectively.

For the molecule `CCOC(=O)c1cc(C2=CCNC2=O)c(-c2cc(C)no2)[nH]1`, the TGI in [1], in [2], in test [3], in [4], in test [5] and in test [6] was greater than 100 µM each time. In addition, the TGI in [13], in test [14], in [7], in test [8], in test [9] and in test [10] was greater than 100 µM throughout. Also, the TGI in [15], in [11] and in test [12] was greater than 100 µM throughout.

In the case of `O=C(CC(Cc1ccccc1)c1ccc(Oc2ccccc2)cc1)Nc1cccc(Cl)c1` (configuration not stated), the TGI is greater than 100 µM in test [1]; 8.49 µM in [2]; greater than 100 µM in test [3]; 49.6 µM in test [4]; greater than 100 µM in test [5]; 17.3 µM in test [6]. In addition, the TGI in test [13] was greater than 100 µM; in test [14], greater than 100 µM; in test [7] it was 73.2 µM; in test [8], 27.2 µM; in test [9], greater than 100 µM; in test [10], 26.3 µM. Also, the values for the TGI in [15], in test [11] and in test [12] were 13.6 µM, 53.8 µM and greater than 100 µM, respectively.

As to `CN1CN(c2ccccc2)C2(CCN(C3Nc4ccccc4O3)CC2)C1=O` (configuration not stated), the TGI in test [1] worked out at 49.1 µM; in [2] it was 58.8 µM; in [3] it was 43.9 µM; in [4], 31.7 µM; in test [5], 46.3 µM; in test [6], 58 µM. In addition, the TGI in test [13] came to 82.1 µM; in test [14], 51.5 µM; in test [7], 50.3 µM; in [8] it was 45.2 µM; in test [9], 29.8 µM; in [10], 42.1 µM. Besides, the TGI in test [15] was determined as 28.3 µM; in test [11], 44.6 µM; in [12], 31.1 µM.

`C=C[C@]1(C)CC(=O)C(C(C)C=O)[C@]12C(=O)Oc1cccc(C)c1C2=O` (some centres not stated): the TGI in test [1] is 27.6 µM; in test [2] it was 34.1 µM; in test [3] it was 30.5 µM; in [4] it was 29.6 µM; in test [5], 28.2 µM; in test [6], greater than 100 µM. Also, the TGI in test [13] is 31.5 µM; in test [14], 28.8 µM; in test [7], 35 µM; in [8] it was 26.3 µM; in test [9] it was 20.6 µM; in test [10], 71.1 µM. Moreover, the TGI in test [15] turned out to be 32.4 µM; in [11], 31.6 µM; in test [12], 35.9 µM.
